The values below come from PMC9081267 (Nature microbiology, 2022).

pIC50: −log10 of the molar value.

For the assay, the target named is T1, bovine pancreatic trypsin (Bos taurus, UniProt P00760).
T1 sequence (P00760 24-246): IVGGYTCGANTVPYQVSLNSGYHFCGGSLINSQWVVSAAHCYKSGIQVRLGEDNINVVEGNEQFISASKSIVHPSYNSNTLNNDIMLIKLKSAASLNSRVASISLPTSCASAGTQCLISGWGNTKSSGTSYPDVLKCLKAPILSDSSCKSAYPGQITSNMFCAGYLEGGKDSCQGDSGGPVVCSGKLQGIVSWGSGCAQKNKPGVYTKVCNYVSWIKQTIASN
Nature of the assay: fluorogenic AMC substrate hydrolysis, kinetic read, non-linear regression. Format: biochemical.
Take `CCC1=C(C)C(Cc2[nH]c(Cc3[nH]c(CC4NC(=O)C(C)=C4CC)c(C)c3CCC(=O)O)c(CCC(=O)O)c2C)NC1=O` (stereo not shown) [Urobilinogen]: the pIC50 was 5.32.
Compound `CCC1=C(C)/C(=C/c2[nH]c(Cc3[nH]c(/C=C4\NC(=O)C(C)=C4CC)c(C)c3CCC(=O)O)c(CCC(=O)O)c2C)NC1=O` [Mesobilirubin] gave a pIC50 of 5.41.
Compound `C=CC1=C(C)/C(=C/c2[nH]c(Cc3[nH]c(/C=C4\NC(=O)C(C)=C4C=C)c(C)c3CCC(=O)O)c(CCC(=O)O)c2C)NC1=O` [Unconjugated Bilirubin] had a negative logarithm of the IC50 (pIC50) of 5.46.
`C=CC1=C(C)/C(=C/C2=NC(=C\c3[nH]c(/C=C4\NC(=O)C(C)=C4C=C)c(C)c3CCC(=O)O)/C(CCC(=O)O)=C2C)NC1=O` [Biliverdin] showed a negative logarithm of the IC50 (pIC50) of 4.90.
